Source: patent US11691992B2 (Anacor Pharmaceuticals, Inc., priority 2017, dated 2023)
Read-outs that look alike come from different tables or passages of the source.

How the values were obtained:
Type in all cases: cell-based
[1] = system: Trypanosoma brucei rhodesiense STIB 900 strain; assay: Trypanosoma brucei rhodesiense STIB 900 screening assay; conditions: 72 h
Outline: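 Bloodstream forms of T. b. rhodesiense STIB 900 (10^4 per well) cultured with seven 3-fold drug dilutions (90 to 0.123 μg/mL) in MEM with 15% horse serum, 72 h, 37 °C, 5% CO2. Alamar Blue added for 2-4 h more; fluorescence read at ex 536/em 588 nm for IC50.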

[2] = system: TdTomato-modified T. cruzi (CL strain) in Vero cells; assay: In vitro IC50 measurement of T. cruzi amastigote killing using TdTomato-modified T. cruzi (CL strain); conditions: Trypanosoma cruzi, 72 h, fluorescence, read-out: IC50: I Org. amastigote Growth T. cruzi CL TdTomato, 3 d
Outline: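 Vero cells were infected with tdTomato-expressing CL-strain parasites and dosed at 5 uM–5 nM. Fluorescence (ex 544/em 612 nm) was read at day 0 and again after 72 h at 37 °C, with day 0 values subtracted. IC50 and IC90 came from nonlinear regression.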

[3] = system: luciferase-expressing L. major parasites developing intracellularly inside RAW 264.7 macrophages; assay: Leishmania major intracellular amastigote assay in RAW 264.7 macrophages (luciferase); conditions: RAW264.7, 96 hours, read-out: IC50: I Org. intracellular amastigote Growth L. major, 4 d
Outline: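 RAW 264.7 macrophages infected overnight with luciferase-expressing L. major promastigotes, washed of extracellular parasites, then exposed to two-fold compound dilutions (final 0.5-10,000 ng/ml) for 96 h at 37° C, 5% CO2. Luciferin luminescence after 30 min; IC50 by sigmoidal variable-slope regression.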

[4] = STIB 900 bloodstream forms, Alamar Blue, protocol of Example 114, read-out: Swiss TPH T b rhodesiense IC50

Row | Compound | IC50 [1, 4] [µM] | IC50 [2] [µM] | IC50 [3] [µM] | IC50 ([1]; read-out: Swiss TPH T b rhodesiense IC50) [µM]
1 | O=C(Nc1ccc2c(c1)B(O)OC2)c1cn(-c2ccccn2)nn1 [Example 61, N-(1-hydroxy-1,3-dihydrobenzo[c][1,2]oxaborol-6-yl)-1-(pyridin-2-yl)-1H-1,2,3-triazole-4-carboxamide] | 0.1 to 0.25 | < 0.6 | 1.1 to 9.9 | 
2 | O=C(Nc1ccc2c(c1)B(O)OC2)c1nnn(-c2ccccc2)c1C(F)(F)F [Example 68, N-(1-hydroxy-1,3-dihydrobenzo[c][1,2]oxaborol-6-yl)-1-phenyl-5-(trifluoromethyl)-1H-1,2,3-triazole-4-carboxamide] |  |  | ≤ 1 | < 0.1
3 | O=C(Nc1ccc2c(c1)B(O)OC2)c1nnn(-c2cccnc2)c1C(F)(F)F [Example 71, N-(1-hydroxy-1,3-dihydrobenzo[c][1,2]oxaborol-6-yl)-1-(pyridin-3-yl)-5-(trifluoromethyl)-1H-1,2,3-triazole-4-carboxamide] | 0.1 to 0.25 |  | ≤ 1 | 
4 | O=C(Nc1ccc2c(c1)B(O)OC2)c1nnn(-c2cccc(F)c2)c1C(F)(F)F [Example 69, 1-(3-Fluorophenyl)-N-(1-hydroxy-1,3-dihydrobenzo[c][1,2]oxaborol-6-yl)-5-(trifluoromethyl)-1H-1,2,3-triazole-4-carboxamide] | 0.1 to 0.25 |  | ≤ 1 | 
5 | Cc1c(C(=O)Nc2ccc3c(c2)B(O)OC3)nnn1-c1cccnc1 [Example 93, N-(1-hydroxy-1,3-dihydrobenzo[c][1,2]oxaborol-6-yl)-5-methyl-1-(pyridin-3-yl)-1H-1,2,3-triazole-4-carboxamide] | 0.26 to 2 | 1.1 to 10 | 10 to 50 | 
